# Reference: ChEMBL document CHEMBL1201862, “PubChem BioAssay data set” (2004)
# Calls of active or inactive are those of the source.
# What was measured:
# Vero = experiment: mammalian cell viability reduction – secondary assay, cytotoxicity control for West Nile virus antiviral project, dose response (AID 1650); format: functional; settings: Chlorocebus sabaeus
# [1] = viability of HCT116 lacking mutant beta-catenin – cell-based, human colon tumor, dose response (AID 1045); format: functional;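 also: HCT116 colon tumor cells with beta catenin knocked out; cells exposed to compound for 60 hours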
# [2] = viability of PTEN-deleted HCT116 cells – cell-based, HCT116 PTEN knockout, dose response (AID 1047); format: functional;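 also: HCT116 colon tumor cells with PTEN knocked out; cells exposed to compound for 60 hours before readout; potency for loss of cell viability measured by luminescence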
# [3] = viability loss in THP-1 monocytes – THP-1 cells, cytotoxicity control for Vif-APOBEC3G degradation inhibitor project, dose response (AID 1117359); format: functional; settings: THP-1
# [4] = HIV-1 Vif–A3G interaction blockers – biochemical, TR-FRET, GST-Vif 1-94, biotin-A3G peptide, dose response retest, primary screen (AID 1117319); format: functional;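 also: TR-FRET signal of purified GST-Vif binding a biotinylated A3G peptide; inhibitors lower the FRET signal by blocking Vif and A3G binding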
# Jurkat = experiment: blockers of NF-kB activation in T cells – Jurkat, luciferase reporter, luminescence, B- and T-cell, dose response (AID 489004); format: functional, cell-based; settings: Homo sapiens;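 also: NF-kB luciferase reporter Jurkat cells stimulated with PMA plus ionomycin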
# [5] = non-specific 3'UTR reporter inhibition in Clone20-Shn3RL – cell-based, Renilla luciferase, cherry-picked, counter-screen for Shn3 inhibitor project, dose response (AID 624133); format: functional
# [6] = biological target: T1, Microphthalmia-associated transcription factor (Homo sapiens, UniProt O75030); experiment: reducers of TRPM1 reporter luminescence, concentration series – cell-based, SK-MEL-5, cherry-picked, set 3, MITF inhibitor project, dose response (AID 493073); format: functional;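 also: SK-MEL-5 melanoma cells with luciferase driven by the MITF target TRPM1 promoter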
# T1 sequence (O75030 whole entry): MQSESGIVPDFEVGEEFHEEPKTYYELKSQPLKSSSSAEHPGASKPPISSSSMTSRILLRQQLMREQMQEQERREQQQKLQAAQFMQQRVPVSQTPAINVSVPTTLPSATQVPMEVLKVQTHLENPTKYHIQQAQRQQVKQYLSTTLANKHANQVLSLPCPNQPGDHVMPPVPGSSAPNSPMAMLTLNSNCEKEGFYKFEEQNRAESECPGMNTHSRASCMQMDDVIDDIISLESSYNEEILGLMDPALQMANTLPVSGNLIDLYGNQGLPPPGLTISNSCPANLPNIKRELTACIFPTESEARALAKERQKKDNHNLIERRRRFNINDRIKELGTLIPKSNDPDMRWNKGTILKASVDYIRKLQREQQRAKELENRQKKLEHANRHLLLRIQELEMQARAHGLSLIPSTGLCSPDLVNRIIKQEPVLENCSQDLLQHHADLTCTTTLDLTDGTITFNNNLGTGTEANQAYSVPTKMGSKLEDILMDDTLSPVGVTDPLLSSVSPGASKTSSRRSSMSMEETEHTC
# [7] = reduction of Shn3 3'UTR-driven luciferase in osteoblasts – cell-based, Clone20 osteoblasts, firefly luciferase, cherry-picked, dose response (AID 624132); format: functional;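 also: firefly luciferase luminescence from reporter carrying the Shn3 3'UTR in osteoblasts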
# INS1 = experiment: INS-1E survival protection against cytokine death – cell-based, luminescence, retest, dose response (AID 449756); format: functional; settings: Rattus norvegicus;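 also: cell death triggered by IL-1 beta plus TNF-alpha plus IFN-gamma mixture; protective hits raise ATP signal compared with cytokine alone wells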
# [8] = loss of viability in HepG2 cells – cell-based, CellTiter-Glo, cherry-picked, cytotoxicity control for Shn3 inhibitor project, dose response (AID 624134); format: functional
# [9] = biological target: T2, COUP transcription factor 2 (Homo sapiens, UniProt P24468); experiment: Luminescence-based cell-based high throughput dose response assay to identify inhibitors of COUP-TFII (NR2F2).; format: functional;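 also: HEK293 cells transiently cotransfected with COUP-TFII expression vector and reporter; luciferase reporter luminescence driven by COUP-TFII from the pX2-168 reporter plasmid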
# T2 sequence (P24468 whole entry): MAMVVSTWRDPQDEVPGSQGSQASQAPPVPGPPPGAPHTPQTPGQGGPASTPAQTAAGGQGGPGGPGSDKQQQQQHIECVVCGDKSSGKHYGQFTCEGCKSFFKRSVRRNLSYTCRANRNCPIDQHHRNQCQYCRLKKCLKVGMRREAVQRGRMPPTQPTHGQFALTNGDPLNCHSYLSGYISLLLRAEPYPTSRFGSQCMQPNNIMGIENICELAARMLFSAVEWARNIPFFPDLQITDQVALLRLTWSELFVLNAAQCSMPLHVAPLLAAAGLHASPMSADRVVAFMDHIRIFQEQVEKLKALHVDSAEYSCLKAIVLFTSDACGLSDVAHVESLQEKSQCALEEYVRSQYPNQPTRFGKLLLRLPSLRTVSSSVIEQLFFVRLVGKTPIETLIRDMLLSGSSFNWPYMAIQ
# [10] = HEK-293T viability loss, compound-treated – cell-based, uHTS hits, cytotoxicity control for B/T-cell NF-kB inhibitor project, dose response (AID 489019); format: functional;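 also: IC50 reflects cytotoxicity as loss of cell viability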
# [11] = biological target: Heat shock protein HSP 90-alpha (Homo sapiens, UniProt P07900); experiment: Luminescence-based dose response biochemical high throughput screening assay for inhibitors of the Heat Shock Protein 90 (HSP90). [Related pubchem assays: 1831 (Summary AID.), 1846 (Confirmation screen.), 1789 (Primary screen.)]
# Leucine aminopeptidase = biological target: T3, Leucine aminopeptidase (Plasmodium falciparum 3D7, UniProt Q8IL11); experiment: P. falciparum M17LAP inhibitors, primary screen, biochemical, fluorogenic H-Leu-NHMec substrate, 1536-well (AID 1619); format: functional
# T3 sequence (Q8IL11 whole entry): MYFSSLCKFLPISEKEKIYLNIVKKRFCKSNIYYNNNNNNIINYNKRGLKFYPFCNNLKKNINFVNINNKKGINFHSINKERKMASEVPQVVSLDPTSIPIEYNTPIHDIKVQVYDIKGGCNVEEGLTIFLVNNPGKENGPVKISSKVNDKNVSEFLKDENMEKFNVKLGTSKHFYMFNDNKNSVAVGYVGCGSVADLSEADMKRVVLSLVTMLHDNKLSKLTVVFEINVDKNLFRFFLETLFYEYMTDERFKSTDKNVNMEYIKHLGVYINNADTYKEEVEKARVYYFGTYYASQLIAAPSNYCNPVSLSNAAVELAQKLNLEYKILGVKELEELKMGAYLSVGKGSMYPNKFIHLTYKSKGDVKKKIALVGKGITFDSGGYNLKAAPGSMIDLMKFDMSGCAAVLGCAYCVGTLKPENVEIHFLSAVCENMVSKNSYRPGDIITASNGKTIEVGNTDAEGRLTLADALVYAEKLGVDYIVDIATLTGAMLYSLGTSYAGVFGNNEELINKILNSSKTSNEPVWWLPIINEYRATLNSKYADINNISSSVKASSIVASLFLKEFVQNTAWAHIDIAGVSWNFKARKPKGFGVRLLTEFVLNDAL
# [12] = biological target: FAD-linked sulfhydryl oxidase ALR (Homo sapiens, UniProt P55789); experiment: ALR-catalysed DTT oxidation blockers – biochemical, H2O2 detection, luminescence, cherry-pick, dose response (AID 493248)
# [13] = biological target: T4, Tyrosine-protein phosphatase non-receptor type 7 (Homo sapiens, UniProt P35236); experiment: HePTP tyrosine phosphatase activity blockers – biochemical, absorbance, leukemia target, primary screen (AID 521); format: functional
# T4 sequence (P35236 whole entry): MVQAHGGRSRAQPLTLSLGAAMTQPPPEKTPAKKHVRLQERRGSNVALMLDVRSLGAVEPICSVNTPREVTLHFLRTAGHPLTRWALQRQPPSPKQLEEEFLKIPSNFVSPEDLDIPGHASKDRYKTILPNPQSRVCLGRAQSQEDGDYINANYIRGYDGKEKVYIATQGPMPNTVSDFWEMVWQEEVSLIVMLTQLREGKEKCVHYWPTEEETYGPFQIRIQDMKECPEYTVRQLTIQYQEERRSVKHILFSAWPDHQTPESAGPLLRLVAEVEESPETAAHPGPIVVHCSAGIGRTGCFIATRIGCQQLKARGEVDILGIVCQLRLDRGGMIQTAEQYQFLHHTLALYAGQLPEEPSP
# [14] = HEK-293T viability loss after treatment – luminescence, T-cell screen hits, cytotoxicity control for TCR NF-kB inhibitor project, dose response (AID 489026); format: functional, cell-based;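 also: cells exposed to compound about 14 hours before the viability readout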
# [15] = Trypanosoma cruzi growth suppression in host cells – NIH3T3 host cells, beta-gal luminescence, confirmation (AID 2044); format: functional, cell-based;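 also: intracellular parasites grown in NIH/3T3 mouse fibroblasts as host cells; luminescent beta-galactosidase reporter signal from transgenic T. cruzi replicating inside host cells; inhibitors lower the luminescence signal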
# [16] = viability loss in Vero cells – cytotoxicity control for Vif-APOBEC3G degradation inhibitor project, dose response (AID 1117358); format: functional; settings: Vero
# [17] = NIH3T3 cell viability loss – ATP luminescence, mouse fibroblasts, counter-screen, dose response (AID 2010); format: functional, cell-based;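 also: cells exposed to compound for about 90 hours before reading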
# [18] = Luminescence Cell-Based Dose Confirmation HTS to Identify Activators of 5'UTR Stem-Loop Driven Alpha-Synuclein mRNA Translation in H4 Neuroglioblastoma Cells. [Related pubchem assays: 1829 (Project Summary), 1814 (Primary HTS)]; format: functional
# H4 = experiment: Luminescence Cell-Based Dose Response HTS to Identify Activators of 5'UTR Stem-Loop Driven Prion Protein mRNA Translation in H4 Neuroglioblastoma Cells. [Related pubchem assays: 1829 (Project Summary), 1814 (Primary HTS)]; format: functional; settings: Homo sapiens
# [19] = Luminescence Cell-Based Dose Response HTS to Identify Activators of Luciferase Translation or Activity in H4 […] Cells. [Related pubchem assays: 1829 (Project Summary), 1814 (Primary HTS)]; format: functional
# Sequence of FAD-linked sulfhydryl oxidase ALR (P55789 whole entry): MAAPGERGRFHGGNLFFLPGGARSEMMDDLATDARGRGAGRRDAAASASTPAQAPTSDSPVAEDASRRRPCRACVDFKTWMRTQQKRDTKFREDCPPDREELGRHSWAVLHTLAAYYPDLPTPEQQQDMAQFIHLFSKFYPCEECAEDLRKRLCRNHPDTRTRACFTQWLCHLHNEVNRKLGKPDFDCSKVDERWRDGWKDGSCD
compound,measurement,setting,value
CCCCn1c(=N)n(CC(O)COc2cccc(C)c2)c2ccccc21 (stereo not given),CC50,Vero,40.2 µM (active)
same,EC50,[1],5.24 µM (active)
same,EC50,[2],5.56 µM (active)
COc1ccc(CCNCc2ccc(C)s2)cc1OC,CC50,[3],> 40 µM (active)
same,IC50,[4],> 100 µM (active)
COc1cc(NC(=O)COc2cc(O)c3c(c2)OC(C)(C)CC3=O)cc(OC)c1OC,IC50,Jurkat,39.9 µM (inactive)
same,AC50,[5],727 nM (active)
same,AC50,[6],5.36 µM (active)
same,AC50,[7],354 nM (active)
same,AC50,INS1,3.99 µM (active)
same,AC50,[8],2.04 µM (active)
same,IC50,[9],2.54 µM (active)
same,IC50,[10],69.1 µM (inactive)
COc1cc(N2Cc3ccccc3C2)ccc1C=O,IC50,[11],> 7 µM (active)
C=CCOc1c(CNc2cccc(C(=O)O)c2)cccc1OC,IC50,[11],2.39 µM (active)
COc1cc(/C=N/Nc2ccc(Cl)c(C(=O)O)c2)ccc1OC(=O)c1cccs1,IC50,Leucine aminopeptidase,55.5 µM (active)
same,IC50,[11],1.32 µM (active)
same,AC50,[12],5.23 µM (active)
CN(C)c1ccc(-c2nn3c(-c4ccccc4Cl)nnc3s2)cc1,IC50,[13],> 100 µM (not active)
same,IC50,[14],> 80 µM (inactive)
Fc1ccc(C(CCCn2nnc(-c3cccnc3)n2)c2ccc(F)cc2)cc1,EC50,[15],2.22 µM (active)
same,CC50,[16],> 40 µM (active)
same,EC50,[17],> 30 µM (not active)
same,EC50,[18],13.7 µM (active)
same,EC50,H4,> 120 µM (not active)
same,EC50,[19],16.3 µM (active)
CCc1ccc(N/C(SCc2cccc(F)c2)=C(/C#N)C(=O)NCc2ccco2)cc1,EC50,[15],1.7 µM (active)
same,CC50,[16],> 40 µM (active)
same,EC50,[17],10.4 µM (active)
CCc1ccc(NC(=O)C(=O)NCCN2CCN(Cc3ccc([N+](=O)[O-])cc3)CC2)cc1,CC50,Vero,37.7 µM (active)
